# Experimental data reported in paper PMC12227546 (Nature Communications, 2025).
# T1: taurine transporter (TauT) (Homo sapiens, UniProt P31641)
# T1 sequence (P31641 1-620): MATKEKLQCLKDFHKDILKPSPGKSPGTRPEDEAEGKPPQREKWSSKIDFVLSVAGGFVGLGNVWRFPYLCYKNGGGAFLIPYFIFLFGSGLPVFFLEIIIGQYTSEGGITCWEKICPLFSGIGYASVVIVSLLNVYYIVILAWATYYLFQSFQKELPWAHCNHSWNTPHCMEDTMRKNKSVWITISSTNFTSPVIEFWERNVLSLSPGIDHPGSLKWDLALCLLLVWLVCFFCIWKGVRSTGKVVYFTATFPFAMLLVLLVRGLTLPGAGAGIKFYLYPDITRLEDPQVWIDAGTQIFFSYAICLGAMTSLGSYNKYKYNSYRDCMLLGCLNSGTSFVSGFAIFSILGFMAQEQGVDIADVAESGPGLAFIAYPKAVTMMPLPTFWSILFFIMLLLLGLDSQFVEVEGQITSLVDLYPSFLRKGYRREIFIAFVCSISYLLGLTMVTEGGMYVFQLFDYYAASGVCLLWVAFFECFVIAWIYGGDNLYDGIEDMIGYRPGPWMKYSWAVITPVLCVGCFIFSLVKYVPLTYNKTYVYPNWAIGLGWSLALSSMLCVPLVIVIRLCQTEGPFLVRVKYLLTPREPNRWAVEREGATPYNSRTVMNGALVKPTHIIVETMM
# Tests used:
# [1] = biological target: T1, taurine transporter (TauT); assay: cryo-EM structure; type: cell-based
# [2] = substrate: NCCS(=O)(=O)O; assay: cells, lysate or membranes; type: cell-based, Homo sapiens; conditions: Na+ and Cl- central pocket
IC50 [1],Molecule,Km [2]
1300 µM,NCCCC(=O)O [GABA],–
–,taurine transporter (TauT) (Homo sapiens; F58A) (protein) MATKEKLQCLKDFHKDILKPSPGKSPGTRPEDEAEGKPPQREKWSSKIDFVLSVAGGAVGLGNVWRFPYLCYKNGGGAFLIPYFIFLFGSGLPVFFLEIIIGQYTSEGGITCWEKICPLFSGIGYASVVIVSLLNVYYIVILAWATYYLFQSFQKELPWAHCNHSWNTPHCMEDTMRKNKSVWITISSTNFTSPVIEFWERNVLSLSPGIDHPGSLKWDLALCLLLVWLVCFFCIWKGVRSTGKVVYFTATFPFAMLLVLLVRGLTLPGAGAGIKFYLYPDITRLEDPQVWIDAGTQIFFSYAICLGAMTSLGSYNKYKYNSYRDCMLLGCLNSGTSFVSGFAIFSILGFMAQEQGVDIADVAESGPGLAFIAYPKAVTMMPLPTFWSILFFIMLLLLGLDSQFVEVEGQITSLVDLYPSFLRKGYRREIFIAFVCSISYLLGLTMVTEGGMYVFQLFDYYAASGVCLLWVAFFECFVIAWIYGGDNLYDGIEDMIGYRPGPWMKYSWAVITPVLCVGCFIFSLVKYVPLTYNKTYVYPNWAIGLGWSLALSSMLCVPLVIVIRLCQTEGPFLVRVKYLLTPREPNRWAVEREGATPYNSRTVMNGALVKPTHIIVETMM,166.2 µM
